From patent US9708318B2, “Bicyclic heterocycles as FGFR4 inhibitors” (Incyte Corporation, priority 2015, dated 2017)
Read-outs that look alike come from different tables or passages of the source.

Assays:
[1] = target: FGFR4 (Homo sapiens (Human), UniProt P22455); experiment: FGFR Enzymatic Assay (FRET peptide phosphorylation), FGFR4; format: biochemical; settings: for FGFR1/FGFR4 IC50 ratio / FGFR2/FGFR4 IC50 ratio / FGFR3/FGFR4 IC50 ratio: FGFR4 selectivity
Description: (§1) The inhibitor potency of the exemplified compounds was measured in an enzyme assay that measures peptide phosphorylation using FRET measurements to detect product formation. Inhibitors were serially diluted in DMSO and a volume of 0.5 μL was transferred to the wells of a 384-well plate.
(§2) The enzymes were purchased from Millipore or Invitrogen.
(§3) GraphPad prism3 was used to analyze the data.

[2] = target: FGFR1 (Homo sapiens (Human), UniProt P11362); experiment: FGFR Enzymatic Assay (FRET peptide phosphorylation), FGFR1
Chain of FGFR1 (P11362 22-822): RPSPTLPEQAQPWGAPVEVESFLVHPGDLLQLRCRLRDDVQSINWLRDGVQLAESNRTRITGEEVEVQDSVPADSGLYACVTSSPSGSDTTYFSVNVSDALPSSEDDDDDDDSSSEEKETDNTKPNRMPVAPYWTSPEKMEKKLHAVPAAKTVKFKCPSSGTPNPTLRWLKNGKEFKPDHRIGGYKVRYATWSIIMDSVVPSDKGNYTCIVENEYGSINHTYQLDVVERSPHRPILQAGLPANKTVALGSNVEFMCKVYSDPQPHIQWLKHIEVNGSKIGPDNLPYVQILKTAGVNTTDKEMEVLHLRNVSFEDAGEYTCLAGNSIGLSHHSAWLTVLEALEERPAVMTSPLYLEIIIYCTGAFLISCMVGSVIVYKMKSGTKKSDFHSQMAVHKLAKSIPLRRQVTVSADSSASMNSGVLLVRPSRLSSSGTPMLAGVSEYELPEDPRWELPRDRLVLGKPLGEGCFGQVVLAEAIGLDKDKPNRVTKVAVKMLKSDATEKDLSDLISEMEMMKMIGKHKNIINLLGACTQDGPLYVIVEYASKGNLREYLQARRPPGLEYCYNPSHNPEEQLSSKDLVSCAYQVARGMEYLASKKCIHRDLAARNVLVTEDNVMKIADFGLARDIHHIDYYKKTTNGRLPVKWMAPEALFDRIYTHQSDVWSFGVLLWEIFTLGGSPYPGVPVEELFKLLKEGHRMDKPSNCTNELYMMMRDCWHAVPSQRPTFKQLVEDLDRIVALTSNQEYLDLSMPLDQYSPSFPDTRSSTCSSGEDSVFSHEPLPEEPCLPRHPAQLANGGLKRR

[3] = target: FGFR3 enzyme (Homo sapiens (Human), UniProt P22607); experiment: FGFR Enzymatic Assay (FRET peptide phosphorylation), FGFR3; format: biochemical; settings: for IC50: read-out: FGFR3 IC50; for FGFR1/FGFR3 IC50 ratio / FGFR4/FGFR3 IC50 ratio: FGFR3 selectivity
Chain of FGFR3 enzyme (P22607 23-806): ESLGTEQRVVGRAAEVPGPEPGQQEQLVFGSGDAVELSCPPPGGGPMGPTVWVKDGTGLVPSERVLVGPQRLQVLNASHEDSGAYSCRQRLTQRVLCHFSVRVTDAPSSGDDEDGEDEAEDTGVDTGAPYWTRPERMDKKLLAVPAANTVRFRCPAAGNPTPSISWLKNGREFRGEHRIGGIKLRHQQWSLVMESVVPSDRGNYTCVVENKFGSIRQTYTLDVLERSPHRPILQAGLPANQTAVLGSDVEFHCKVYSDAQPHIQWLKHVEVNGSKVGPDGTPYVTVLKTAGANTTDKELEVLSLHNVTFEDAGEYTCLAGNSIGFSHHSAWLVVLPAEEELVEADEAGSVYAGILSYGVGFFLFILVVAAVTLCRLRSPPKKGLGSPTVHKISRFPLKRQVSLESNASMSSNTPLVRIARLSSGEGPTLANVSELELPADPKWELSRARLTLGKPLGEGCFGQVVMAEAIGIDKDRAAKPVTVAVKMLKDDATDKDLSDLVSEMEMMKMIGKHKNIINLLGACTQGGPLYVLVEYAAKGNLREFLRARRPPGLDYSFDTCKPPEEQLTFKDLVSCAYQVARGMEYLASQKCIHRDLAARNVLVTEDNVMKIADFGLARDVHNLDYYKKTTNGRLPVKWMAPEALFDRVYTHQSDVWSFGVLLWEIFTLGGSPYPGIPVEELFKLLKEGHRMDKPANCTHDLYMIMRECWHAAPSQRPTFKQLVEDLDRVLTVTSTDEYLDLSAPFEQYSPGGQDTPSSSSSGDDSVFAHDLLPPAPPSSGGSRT
Description: as §1, §3

[4] = target: FGFR2 (Homo sapiens (Human), UniProt P21802); experiment: FGFR Enzymatic Assay (FRET peptide phosphorylation), FGFR2; format: biochemical
Chain of FGFR2 (P21802 22-821): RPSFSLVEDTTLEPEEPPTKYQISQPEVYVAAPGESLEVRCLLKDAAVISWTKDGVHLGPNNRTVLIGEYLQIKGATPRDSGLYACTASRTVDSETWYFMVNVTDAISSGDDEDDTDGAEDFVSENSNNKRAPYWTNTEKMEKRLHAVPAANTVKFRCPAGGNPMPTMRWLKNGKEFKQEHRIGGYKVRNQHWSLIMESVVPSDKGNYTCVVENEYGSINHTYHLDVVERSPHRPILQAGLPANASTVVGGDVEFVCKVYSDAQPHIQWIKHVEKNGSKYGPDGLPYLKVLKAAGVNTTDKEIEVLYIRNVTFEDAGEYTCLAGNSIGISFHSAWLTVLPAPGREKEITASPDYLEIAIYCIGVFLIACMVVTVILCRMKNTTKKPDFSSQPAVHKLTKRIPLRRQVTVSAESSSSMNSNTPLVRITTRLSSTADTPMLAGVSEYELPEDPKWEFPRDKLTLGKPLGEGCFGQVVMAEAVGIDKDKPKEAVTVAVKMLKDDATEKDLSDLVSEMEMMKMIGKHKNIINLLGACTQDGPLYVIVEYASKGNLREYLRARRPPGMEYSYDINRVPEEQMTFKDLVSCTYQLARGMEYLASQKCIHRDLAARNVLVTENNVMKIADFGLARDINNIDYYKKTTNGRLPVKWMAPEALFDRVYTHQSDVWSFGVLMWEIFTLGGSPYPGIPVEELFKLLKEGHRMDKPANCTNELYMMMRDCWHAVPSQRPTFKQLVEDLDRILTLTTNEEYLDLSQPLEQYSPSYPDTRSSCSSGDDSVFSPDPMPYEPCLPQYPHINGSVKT
Description: as §1, §2, §3

[5] = pre-incubated for 5 to 10 minutes
[6] = FGFR1 IC50 (nM), pre-incubated for 5 to 10 minutes
[7] = read-out: FGFR1 IC50, pre-incubated for 4 hours
[8] = FGFR1 IC50 (nM), pre-incubated for 4 hours

Chain of FGFR4 (P22455 22-802): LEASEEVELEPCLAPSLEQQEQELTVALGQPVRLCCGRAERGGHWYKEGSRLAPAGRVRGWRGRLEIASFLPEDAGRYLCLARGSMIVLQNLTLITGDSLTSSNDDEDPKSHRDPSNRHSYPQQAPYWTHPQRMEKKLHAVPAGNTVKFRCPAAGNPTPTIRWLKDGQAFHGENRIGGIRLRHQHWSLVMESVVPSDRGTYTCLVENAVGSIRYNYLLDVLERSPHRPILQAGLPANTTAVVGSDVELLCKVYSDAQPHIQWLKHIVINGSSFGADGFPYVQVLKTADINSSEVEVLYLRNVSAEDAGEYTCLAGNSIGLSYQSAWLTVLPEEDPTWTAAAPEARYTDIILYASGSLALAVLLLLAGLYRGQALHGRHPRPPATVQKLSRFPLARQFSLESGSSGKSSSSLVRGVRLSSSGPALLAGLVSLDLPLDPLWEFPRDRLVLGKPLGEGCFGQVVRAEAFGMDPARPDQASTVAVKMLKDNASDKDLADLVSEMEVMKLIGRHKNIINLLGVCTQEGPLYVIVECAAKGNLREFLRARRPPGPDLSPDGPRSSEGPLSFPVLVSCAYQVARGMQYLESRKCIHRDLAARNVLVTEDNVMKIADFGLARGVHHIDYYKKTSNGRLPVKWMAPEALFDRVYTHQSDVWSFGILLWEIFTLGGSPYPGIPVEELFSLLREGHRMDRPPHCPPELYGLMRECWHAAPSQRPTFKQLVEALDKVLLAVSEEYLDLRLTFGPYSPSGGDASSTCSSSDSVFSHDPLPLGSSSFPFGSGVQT

SMILES | IC50 [1, 5] [nM] | IC50 [3, 5] [nM] | IC50 [4, 5] [nM] | IC50 ([1]; pre-incubated for 4 hours) [nM] | IC50 ([2]; read-out: FGFR1 IC50, pre-incubated for 5 to 10 minutes) [nM] | IC50 [2, 7] [nM] | FGFR1/FGFR3 IC50 ratio ([3]; pre-incubated for 4 hours) | FGFR4/FGFR3 IC50 ratio ([3]; pre-incubated for 4 hours) | IC50 ([3]; pre-incubated for 4 hours) [nM] | IC50 ([4]; pre-incubated for 4 hours) [nM] | IC50 [2, 8] [nM] | IC50 [2, 6] [nM] | FGFR1/FGFR4 IC50 ratio [1, 5] | FGFR2/FGFR4 IC50 ratio [1, 5] | FGFR3/FGFR4 IC50 ratio [1, 5] | FGFR1/FGFR4 IC50 ratio ([1]; pre-incubated for 4 hours) | FGFR2/FGFR4 IC50 ratio ([1]; pre-incubated for 4 hours) | FGFR3/FGFR4 IC50 ratio ([1]; pre-incubated for 4 hours)
COc1cc(OC)c(F)c(N2Cc3cnc(-c4cn(C)nc4C)cc3N(Cc3ccc4c(c3)nnn4C)C2=O)c1F [Example 118, 3-(2,6-difluoro-3,5-dimethoxyphenyl)-7-(1,3-dimethyl-1H-pyrazol-4-yl)-1-((1-methyl-1H-benzo[d][1,2,3]triazol-5-yl)methyl)-3,4-dihydropyrido[4,3-d]pyrimidin-2(1H)-one] | 30 to 200 | 10 to 30 | 10 to 30 | – | – | – | – | – | – | – | – | 30 to 200 | – | – | – | – | – | –
COc1cc(OC)c(F)c(N2Cc3cnc(-c4cncc(N)c4)cc3C3(CC3)C2=O)c1F [Example 4, 6′-(5-aminopyridin-3-yl)-2′-(2,6-difluoro-3,5-dimethoxyphenyl)-1′H-spiro[cyclopropane-1,4′-[2,7]naphthyridin]-3′(2′H)-one] | < 10 | 10 to 30 | 10 to 30 | < 10 | – | – | >1 | – | 30 to 200 | 30 to 200 | 30 to 200 | 30 to 200 | >10 | >10 | >5 | >25 | >10 | >10
CCN1C(=O)N(c2c(F)c(OC)cc(OC)c2F)Cc2cnc(-c3cn(CC(=O)N4CCOCC4)nc3C)cc21 [Example 51, 3-(2,6-difluoro-3,5-dimethoxyphenyl)-1-ethyl-7-(3-methyl-1-(2-morpholino-2-oxoethyl)-1H-pyrazol-4-yl)-3,4-dihydropyrido[4,3-d]pyrimidin-2(1H)-one] | – | – | – | > 200 | – | > 200 | >1 | >1 | 30 to 200 | 30 to 200 | – | – | – | – | – | – | – | –
CCN1C(=O)N(c2c(F)c(OC)cc(OC)c2F)Cc2cnc(-c3ccc(C4(C#N)CC4)cc3)cc21 [Example 183, 1-(4-(3-(2,6-difluoro-3,5-dimethoxyphenyl)-1-ethyl-2-oxo-1,2,3,4-tetrahydropyrido[4,3-d]pyrimidin-7-yl)phenyl)cyclopropanecarbonitrile] | – | – | – | 30 to 200 | – | – | >3 | >10 | < 10 | < 10 | 10 to 30 | – | – | – | – | – | – | –
COc1cc(N2C(=O)N(c3c(F)c(OC)cc(OC)c3F)Cc3cnc(-c4cn(C)nc4C)cc32)ccc1C#N [Example 81, 4-(3-(2,6-difluoro-3,5-dimethoxyphenyl)-7-(1,3-dimethyl-1H-pyrazol-4-yl)-2-oxo-3,4-dihydropyrido[4,3-d]pyrimidin-1(2H)-yl)-2-methoxybenzonitrile] | – | – | – | > 200 | – | – | >5 | >10 | 10 to 30 | 10 to 30 | 30 to 200 | – | – | – | – | – | – | –
COc1cc(OC)c(F)c(N2Cc3cnc(-c4nn(CC5CCOCC5)cc4C#N)cc3C3(CC3)C2=O)c1F [Example 173, 3-(2′-(2,6-difluoro-3,5-dimethoxyphenyl)-3′-oxo-2′,3′-dihydro-1′H-spiro[cyclopropane-1,4′-[2,7]naphthyridine]-6′-yl)-1-((tetrahydro-2H-pyran-4-yl)methyl)-1H-pyrazole-4-carbonitrile] | – | – | – | 10 to 30 | – | > 200 | – | – | > 200 | > 200 | – | – | – | – | – | >100 | >100 | >50
CCN1C(=O)N(c2c(F)c(OC)cc(OC)c2F)Cc2cnc(-c3ccc(C(N)=O)nc3)cc21 [Example 184, 5-(3-(2,6-difluoro-3,5-dimethoxyphenyl)-1-ethyl-2-oxo-1,2,3,4-tetrahydropyrido[4,3-d]pyrimidin-7-yl)picolinamide] | – | – | – | 10 to 30 | – | – | >5 | >5 | < 10 | < 10 | 10 to 30 | – | – | – | – | – | – | –
COc1ccc(N2C(=O)N(c3c(F)c(OC)cc(OC)c3F)Cc3cnc(-c4cn(C)nc4C)cc32)cc1 [Example 104, 3-(2,6-difluoro-3,5-dimethoxyphenyl)-7-(1,3-dimethyl-1H-pyrazol-4-yl)-1-(4-methoxyphenyl)-3,4-dihydropyrido[4,3-d]pyrimidin-2(1H)-one] | – | – | – | 30 to 200 | – | – | >3 | >5 | < 10 | < 10 | 10 to 30 | – | – | – | – | – | – | –
CCn1cc(N2C(=O)N(c3c(F)c(OC)cc(OC)c3F)Cc3cnc(-c4cn(C)nc4C)cc32)cn1 [Example 131, 3-(2,6-difluoro-3,5-dimethoxyphenyl)-7-(1,3-dimethyl-1H-pyrazol-4-yl)-1-(1-ethyl-1H-pyrazol-4-yl)-3,4-dihydropyrido[4,3-d]pyrimidin-2(1H)-one] | – | – | – | > 200 | – | – | >3 | >10 | 10 to 30 | 10 to 30 | 30 to 200 | – | – | – | – | – | – | –

Continued, in another order:

IC50 [1, 5] [nM] | IC50 [3, 5] [nM] | IC50 [4, 5] [nM] | IC50 ([1]; pre-incubated for 4 hours) [nM] | IC50 ([2]; read-out: FGFR1 IC50, pre-incubated for 5 to 10 minutes) [nM] | IC50 [2, 7] [nM] | FGFR1/FGFR3 IC50 ratio ([3]; pre-incubated for 4 hours) | FGFR4/FGFR3 IC50 ratio ([3]; pre-incubated for 4 hours) | IC50 ([3]; pre-incubated for 4 hours) [nM] | IC50 ([4]; pre-incubated for 4 hours) [nM] | IC50 [2, 8] [nM] | SMILES | IC50 [2, 6] [nM] | FGFR1/FGFR4 IC50 ratio [1, 5] | FGFR2/FGFR4 IC50 ratio [1, 5] | FGFR3/FGFR4 IC50 ratio [1, 5] | FGFR1/FGFR4 IC50 ratio ([1]; pre-incubated for 4 hours) | FGFR2/FGFR4 IC50 ratio ([1]; pre-incubated for 4 hours) | FGFR3/FGFR4 IC50 ratio ([1]; pre-incubated for 4 hours)
< 10 | < 10 | < 10 | < 10 | < 10 | < 10 | >5 | >5 | < 10 | < 10 | – | COc1cc(OC)c(F)c(N2Cc3cnc(-c4cnn(C)c4)cc3C3(CC3)C2=O)c1F [Example 186, 2′-(2,6-difluoro-3,5-dimethoxyphenyl)-6′-(1-methyl-1H-pyrazol-4-yl)-1′,2′-dihydro-3′H-spiro[cyclopropane-1,4′-[2,7]naphthyridin]-3′-one] | – | – | – | – | – | – | –
– | – | – | 10 to 30 | – | – | >5 | >5 | < 10 | < 10 | 30 to 200 | CCN1C(=O)N(c2c(F)c(OC)cc(OC)c2F)Cc2cnc(-c3ccc(CC#N)cc3)cc21 [Example 180, 2-(4-(3-(2,6-difluoro-3,5-dimethoxyphenyl)-1-ethyl-2-oxo-1,2,3,4-tetrahydropyrido[4,3-d]pyrimidin-7-yl)phenyl)acetonitrile] | – | – | – | – | – | – | –
– | – | – | 10 to 30 | – | – | >5 | >10 | < 10 | < 10 | 10 to 30 | CCN1C(=O)N(c2c(F)c(OC)cc(OC)c2F)Cc2cnc(-c3ccc(C(=O)NCCO)nc3)cc21 [Example 177, 5-(3-(2,6-difluoro-3,5-dimethoxyphenyl)-1-ethyl-2-oxo-1,2,3,4-tetrahydropyrido[4,3-d]pyrimidin-7-yl)-N-(2-hydroxyethyl)picolinamide] | – | – | – | – | – | – | –
– | – | – | 10 to 30 | – | – | >10 | >5 | < 10 | < 10 | 10 to 30 | CCN1C(=O)N(c2c(F)c(OC)cc(OC)c2F)Cc2cnc(-c3ccc(C(=O)NC4CC4)nc3)cc21 [Example 176, N-cyclopropyl-5-(3-(2,6-difluoro-3,5-dimethoxyphenyl)-1-ethyl-2-oxo-1,2,3,4-tetrahydropyrido[4,3-d]pyrimidin-7-yl)picolinamide] | – | – | – | – | – | – | –
– | – | – | < 10 | – | < 10 | >5 | >5 | < 10 | < 10 | – | COc1cc(OC)c(F)c(N2Cc3cnc(-c4cnn(CCCN5CCOCC5)c4)cc3C3(CC3)C2=O)c1F [Example 151, 2′-(2,6-difluoro-3,5-dimethoxyphenyl)-6′-(1-(3-morpholinopropyl)-1H-pyrazol-4-yl)-1′H-spiro[cyclopropane-1,4′-[2,7]naphthyridin]-3′(2′H)-one] | – | – | – | – | – | – | –
